Assay results from BindingDB's records for doi:10.1016/j.bmcl.2016.04.067 (Peking University Health Science Center, 2016).

How the values were obtained:
[1] = Inhibition of caspase-like activity of 20S human proteasome assessed as Z-nLPnLD-AMC hydrolysis at using Promega proteasome-Glo-3 substrate incubated for 15 mins by luminescence assay
[2] = Inhibition of trypsin-like activity of 20S human proteasome assessed as Z-LRR-AMC hydrolysis at using Promega proteasome-Glo-3 substrate incubated for 15 mins by luminescence assay

Row | SMILES | IC50 [1] | IC50 [2]
1 | O=c1c2ccccc2c(-c2ccc(OCCCC[P+](c3ccccc3)(c3ccccc3)c3ccccc3)cc2)nn1-c1ccccc1 | 103 µM | 220 µM
2 | O=c1c2ccccc2c(-c2ccc(OCCCC[P+](c3ccccc3)(c3ccccc3)c3ccccc3)cc2)nn1-c1cccs1 | 70.5 µM | 558 µM
3 | CNc1ccc(-n2nc(-c3ccc(OCCCC[P+](c4ccccc4)(c4ccccc4)c4ccccc4)cc3)c3ccccc3c2=O)cc1 | 131 µM | 390 µM
4 | CC(C)Cn1nc(-c2ccc(OCCCC[P+](c3ccccc3)(c3ccccc3)c3ccccc3)cc2)c2ccccc2c1=O | 80.2 µM | 276 µM
5 | O=c1c2ccccc2c(-c2ccc(OCCCC[P+](c3ccccc3)(c3ccccc3)c3ccccc3)cc2)nn1CC1CC1 | 133 µM | 589 µM
6 | O=c1c2ccccc2c(-c2ccc(OCCCC[P+](c3ccccc3)(c3ccccc3)c3ccccc3)cc2)nn1CC1CCCCC1 | 50.4 µM | 643 µM
